Assay results: ChEMBL document CHEMBL1157784, “Antitumor activity and COMPARE analysis of bis-indole derivatives” (Bioorg Med Chem, 2010)
The source made the active and inactive calls. The rule behind the calls is not given here.

Tests used:
[1] = Growth inhibition of human colon cancer cell by NCI-CLS assay; assay type: functional; conditions: Cancer cell lines
[2] = Growth inhibition of human prostate cancer cell by NCI-CLS assay; assay type: functional; conditions: Cancer cell lines; for CC50: read-out: LC50 (the source's name)
[3] = target: NAD(P)H dehydrogenase [quinone] 1 (Homo sapiens) (UniProt P15559); assay: Induction of NQO1 activity in HUVEC at 5 uM after 24 to 48 hrs by fluorescence plate reader
Chain of NAD(P)H dehydrogenase [quinone] 1 (Homo sapiens) (P15559 whole entry): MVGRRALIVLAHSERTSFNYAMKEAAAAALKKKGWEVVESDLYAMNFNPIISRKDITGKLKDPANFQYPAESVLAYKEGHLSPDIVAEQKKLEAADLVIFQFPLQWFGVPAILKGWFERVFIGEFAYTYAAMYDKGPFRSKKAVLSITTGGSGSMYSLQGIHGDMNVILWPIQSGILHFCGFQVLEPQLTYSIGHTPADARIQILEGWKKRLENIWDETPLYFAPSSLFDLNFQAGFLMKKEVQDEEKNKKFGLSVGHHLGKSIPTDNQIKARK

HUVEC = assay: Cytotoxicity against HUVEC after 2 days by MTT assay; assay type: cell-based; conditions: Homo sapiens, 48 h
[4] = Growth inhibition of human leukemia cell by NCI-CLS assay; assay type: functional
[5] = Growth inhibition of human CNS cancer cell by NCI-CLS assay; assay type: functional; conditions: Cancer cell lines; for CC50: read-out: LC50 (the source's name)
NSCLC = assay: Growth inhibition of human NSCLC cell by NCI-CLS assay; assay type: functional
[6] = Growth inhibition of human breast cancer cell by NCI-CLS assay; assay type: functional; conditions: Cancer cell lines; for CC50: read-out: LC50 (the source's name)
HEL = assay: Antiproliferative activity against human HEL cells after 2 days by MTT assay; assay type: functional, cell-based; conditions: 48 h
[7] = Antiproliferative activity against human B1647 cells after 2 days by MTT assay; assay type: functional, cell-based; conditions: B1647, 48 h
[8] = Growth inhibition of human melanoma cell by NCI-CLS assay; assay type: functional; conditions: for CC50: read-out: LC50 (the source's name)
[9] = Growth inhibition of human ovarian cancer cell by NCI-CLS assay; assay type: functional; conditions: Cancer cell lines; for CC50: read-out: LC50 (the source's name)
[10] = Growth inhibition of human renal cancer cell by NCI-CLS assay; assay type: functional; conditions: Cancer cell lines; for CC50: read-out: LC50 (the source's name)
[11] = Antiproliferative activity against human M07e cells after 2 days by MTT assay; assay type: functional, cell-based; conditions: M-07e, 48 h
[12] = Acute toxicity in athymic nude Swiss mouse administered as single dose; assay type: organism-based; conditions: in vivo

Row | SMILES | GI50 [1] | LC50 [1] | TGI [1] | GI50 [2] | TGI [2] | CC50 [2] | GI50 [4] | TGI [4] | GI50 [5] | TGI [5] | GI50 (NSCLC) | TGI (NSCLC) | GI50 [6] | TGI [6] | GI50 [8] | TGI [8] | GI50 [9] | TGI [9] | GI50 [10] | TGI [10] | other results
1 | O=C1Nc2cc(OC(F)(F)F)ccc2/C1=C\c1cccc(/C=C2/C(=O)Nc3cc(OC(F)(F)F)ccc32)n1 | 0.2 µM | 2 µM | 0.5 µM | 0.1 µM | 0.3 µM | 3.2 µM | 0.2 µM | 8.9 µM | 0.3 µM | 0.8 µM | 0.4 µM | 1.9 µM | 0.3 µM | 2 µM | 0.4 µM | 1.1 µM | 0.4 µM | 2.5 µM | 0.3 µM | 0.7 µM | Activity [3]: Active; IC50 (HUVEC): < 5 µM; CC50 [5]: 2.6 µM; LC50 (NSCLC): 15.5 µM; CC50 [6]: 15.8 µM; IC50 (HEL): 3 µM; IC50 [7]: 3 µM; CC50 [8]: 5.7 µM; CC50 [9]: 12.3 µM; CC50 [10]: 2.9 µM; IC50 [11]: 3 µM
2 | O=Cc1cccc(/C=C2/C(=O)Nc3c2ccc2ccccc32)n1 | 9.5 µM | 83.2 µM | 44.7 µM | 5.7 µM | 33.1 µM | 97.7 µM | 2.5 µM | 7.6 µM | 11.2 µM | 33.9 µM | 14.4 µM | 37.1 µM | 6.2 µM | 45.7 µM | 11.5 µM | 35.5 µM | 8.7 µM | 30.9 µM | 10.7 µM | 26.9 µM | CC50 [5]: 91.2 µM; LC50 (NSCLC): 85.1 µM; CC50 [6]: 79.4 µM; CC50 [8]: 72.4 µM; CC50 [9]: 72.4 µM; CC50 [10]: 74.1 µM
3 | O=C1Nc2cccc(F)c2C1=Cc1cccc(C=C2C(=O)Nc3cccc(F)c32)n1 | 0.7 µM | – | 3.3 µM | 1.4 µM | 12.9 µM | – | 0.8 µM | 9.8 µM | 1.1 µM | 5.7 µM | 2 µM | 10.2 µM | 0.8 µM | 10 µM | 0.9 µM | 2.8 µM | 1.6 µM | 8.5 µM | 1.1 µM | 3.8 µM | –
4 | COc1ccc(OC)c2c1NC(=O)/C2=C/c1cccc(/C=C2/C(=O)Nc3c(OC)ccc(OC)c32)n1 | 0.5 µM | 22.4 µM | 1.9 µM | 0.5 µM | 3.4 µM | 25.1 µM | 0.4 µM | 8.7 µM | 0.7 µM | 3.6 µM | 0.9 µM | 18.6 µM | 0.7 µM | 17.4 µM | 0.7 µM | 2.2 µM | 0.8 µM | 11.2 µM | 0.7 µM | 2.5 µM | LC50 [4]: 64.6 µM; CC50 [5]: 21.9 µM; LC50 (NSCLC): 85.1 µM; CC50 [6]: 60.3 µM; CC50 [8]: 13.5 µM; CC50 [9]: 27.5 µM; CC50 [10]: 18.2 µM
5 | O=C1Nc2cccc(I)c2/C1=C\c1cccc(/C=C2/C(=O)Nc3cccc(I)c32)n1 | 0.5 µM | 7.6 µM | 1.9 µM | 0.6 µM | 2.2 µM | 24 µM | 0.9 µM | 30.9 µM | 1.2 µM | 4 µM | 1.3 µM | 5 µM | 0.8 µM | 4.4 µM | 1 µM | 3.2 µM | 1.1 µM | 5.6 µM | 0.9 µM | 2.6 µM | CC50 [5]: 13.8 µM; LC50 (NSCLC): 21.9 µM; CC50 [6]: 21.9 µM; CC50 [8]: 13.5 µM; CC50 [9]: 22.4 µM; CC50 [10]: 8.3 µM
6 | C[S+]([O-])CCCCN=C=S (stereo unspecified) | – | – | – | – | – | – | – | – | – | – | – | – | – | – | – | – | – | – | – | – | Activity [3]: Active
7 | COc1ccc2c(c1)/C(=C\c1cccc(/C=C3/C(=O)Nc4ccc(OC)cc43)c1)C(=O)N2 | 1.7 µM | 83.2 µM | 7.4 µM | 1.7 µM | 4.1 µM | 25.7 µM | 1 µM | 11.5 µM | 1.4 µM | 4.3 µM | 3 µM | 11 µM | 1.2 µM | 5 µM | 1.2 µM | 2.9 µM | 2.1 µM | 6.3 µM | 2.5 µM | 6.2 µM | CC50 [5]: 29.5 µM; LC50 (NSCLC): 85.1 µM; CC50 [8]: 30.2 µM; CC50 [9]: 95.5 µM; CC50 [10]: 79.4 µM
8 | Cc1[nH]c(C)c(/C=C2/C(=O)Nc3ccc(F)cc32)c1/C=C1/C(=O)Nc2ccc(F)cc21 | 5 µM | 53.7 µM | 17 µM | 7.9 µM | 20.4 µM | 44.7 µM | 2.4 µM | 9.1 µM | 3.4 µM | 13.2 µM | 7.8 µM | 25.1 µM | 4.9 µM | 22.4 µM | 5.1 µM | 18.2 µM | 8.1 µM | 25.7 µM | 9.1 µM | 32.4 µM | LC50 [4]: 37.1 µM; CC50 [5]: 46.8 µM; LC50 (NSCLC): 74.1 µM; CC50 [6]: 70.8 µM; CC50 [8]: 52.5 µM; CC50 [9]: 72.4 µM; CC50 [10]: 75.9 µM
9 | COc1cc2c(c(OC)c1OC)/C(=C\c1cccc(/C=C3/C(=O)Nc4cc(OC)c(OC)c(OC)c43)n1)C(=O)N2 | 0.2 µM | 7.2 µM | 0.5 µM | 0.3 µM | 1 µM | 16.6 µM | 0.2 µM | 2.8 µM | 0.3 µM | 0.8 µM | 0.3 µM | 1.5 µM | 0.2 µM | 1.5 µM | 0.2 µM | 0.5 µM | 0.3 µM | 0.8 µM | 0.3 µM | 0.7 µM | Activity [3]: Active; IC50 (HUVEC): < 5 µM; LC50 [4]: 67.6 µM; CC50 [5]: 3.2 µM; LC50 (NSCLC): 33.1 µM; CC50 [6]: 24.6 µM; MTD [12]: 100 mg/kg; IC50 (HEL): 1 µM; IC50 [7]: 1 µM; CC50 [8]: 2.7 µM; CC50 [9]: 5.7 µM; CC50 [10]: 4.5 µM; IC50 [11]: 1 µM
10 | COc1ccc2c(c1)/C(=C\c1ccccc1/C=C1/C(=O)Nc3ccc(OC)cc31)C(=O)N2 | 7.8 µM | – | 87.1 µM | 14.4 µM | 58.9 µM | – | 5.4 µM | – | 14.1 µM | 72.4 µM | 14.1 µM | 87.1 µM | 7.8 µM | – | 13.8 µM | 91.2 µM | 14.1 µM | – | 21.4 µM | 79.4 µM | –
11 | COc1ccc2c(c1)/C(=C\c1cc(OC)c(O)c(-c3cc(/C=C4/C(=O)Nc5ccc(OC)cc54)cc(OC)c3O)c1)C(=O)N2 | 10.5 µM | – | 75.9 µM | 10.5 µM | – | – | 6.9 µM | 89.1 µM | 6.8 µM | 87.1 µM | 21.9 µM | 95.5 µM | 13.8 µM | – | 10.7 µM | 93.3 µM | 15.1 µM | – | 20.9 µM | 95.5 µM | –
12 | O=C1Nc2cccc(Cl)c2/C1=C\c1cccc(/C=C2/C(=O)Nc3cccc(Cl)c32)c1 | 2.6 µM | 33.1 µM | 14.8 µM | 1.5 µM | 16.2 µM | 50.1 µM | 1.3 µM | 9.8 µM | 1.7 µM | 13.5 µM | 4.2 µM | 20.4 µM | 2.4 µM | 13.2 µM | 3.2 µM | 16.6 µM | 2.7 µM | 14.4 µM | 2.3 µM | 9.3 µM | LC50 [4]: 27.5 µM; CC50 [5]: 38.9 µM; LC50 (NSCLC): 42.7 µM; CC50 [6]: 42.7 µM; CC50 [8]: 34.7 µM; CC50 [9]: 41.7 µM; CC50 [10]: 36.3 µM
13 | O=C1Nc2cccc(Cl)c2/C1=C\c1ccc2ccc3ccc(/C=C4/C(=O)Nc5cccc(Cl)c54)nc3c2n1 | 3.9 µM | 79.4 µM | 30.9 µM | 3.8 µM | 31.6 µM | 79.4 µM | 1.1 µM | 30.2 µM | 7.4 µM | 34.7 µM | 25.7 µM | 79.4 µM | 14.4 µM | 70.8 µM | 13.2 µM | 42.7 µM | 6.2 µM | 30.9 µM | 9.5 µM | 58.9 µM | CC50 [5]: 77.6 µM; CC50 [6]: 93.3 µM; CC50 [8]: 61.7 µM; CC50 [9]: 70.8 µM; CC50 [10]: 97.7 µM
